For assay [1], the target named is T1, E. coli alkaline phosphatase, native (strain CW3747) (Escherichia coli, UniProt P00634).
T1 construct: The monomer is an unglycosylated single chain of 449 amino acids in its mature form; made in house; host or cells: E. coli strain CW3747 (ATCC 27256), enzyme isolated by the method of Applebury et al. 1970
Briefly: Kinetic constants, hydrolysis of PNPP to p-nitrophenol. The format is biochemical. Conditions: native enzyme, 1M Tris HCl.
Method: B, Native alkaline phosphatase, [K2 HPO4 ]-0 (0), 1×10^-5 M ( ), 3×10^-5 M (Δ). The enzyme was assayed as described under "Materials and Methods" in Example I except that the assay solution contained K2 HPO4 at the indicated concentration and PNPP at concentrations ranging from 5×10^-6 to 1×10^-3 M.
Enzyme and Chemicals - Alkaline phosphatase was isolated from E. coli strain CW3747 (A.T.C.C. 27256) according to the method described by Applebury et al. (Applebury, M. L. et al. J. Biol. Chem. 245: 4968 (1970)). Enzyme concentrations were determined spectrophotometrically at 278 nm using E1 cm^0.1% =0.72. Molar calculations were based on Mr =94,000. The enzyme activity was assayed as the rate of hydrolysis of PNPP^1 to p-nitrophenol. The reaction was monitored by following the increase in absorbance at 410 nm (Δε=1.62×10^4M^-1 cm^-1) in a solution of 1×10^-3 M PNPP, 1M Tris HCl, 10 mM MgCl2, 5×10^-5 M ZnCl2, pH 8.0, 20° C.

The target of assay [2] is T2, E. coli alkaline phosphatase, trypsin-modified (tm-AP; NH2-terminal 10 or 11 amino acids removed, cleaved at Arg-10 Ala-11) (Escherichia coli, UniProt P00634).
T2 construct: trypsin cleaves the Arg-10 Ala-11 bond leaving Ala as the NH2 -terminal residue; made in house; host or cells: E. coli strain CW3747 enzyme treated with trypsin, purified by chromatofocusing
T2 sequence (P00634 33-471): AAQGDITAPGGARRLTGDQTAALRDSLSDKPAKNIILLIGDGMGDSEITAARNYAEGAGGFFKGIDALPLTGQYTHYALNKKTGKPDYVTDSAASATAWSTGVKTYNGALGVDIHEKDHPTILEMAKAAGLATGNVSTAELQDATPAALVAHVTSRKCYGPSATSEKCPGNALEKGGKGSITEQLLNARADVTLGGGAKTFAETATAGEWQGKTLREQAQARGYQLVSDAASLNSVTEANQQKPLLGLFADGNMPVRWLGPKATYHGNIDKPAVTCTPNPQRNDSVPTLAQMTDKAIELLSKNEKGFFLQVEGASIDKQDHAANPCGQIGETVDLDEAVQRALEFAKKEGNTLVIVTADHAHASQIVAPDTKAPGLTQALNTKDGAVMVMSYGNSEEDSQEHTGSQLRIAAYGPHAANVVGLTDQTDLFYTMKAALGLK
The assay is described as above. The format is biochemical. Conditions: trypsin-modified enzyme, 1M Tris HCl.
Method: The enzyme was assayed as described under "Materials and Methods" in Example I except that the assay solution contained K2 HPO4 at the indicated concentration and PNPP at concentrations ranging from 5×10^-6 to 1×10^-3 M.
Enzyme and Chemicals - Alkaline phosphatase was isolated from E. coli strain CW3747 (A.T.C.C. 27256) according to the method described by Applebury et al. (Applebury, M. L. et al. J. Biol. Chem. 245: 4968 (1970)). Enzyme concentrations were determined spectrophotometrically at 278 nm using E1 cm^0.1% =0.72. Molar calculations were based on Mr =94,000. The enzyme activity was assayed as the rate of hydrolysis of PNPP^1 to p-nitrophenol. The reaction was monitored by following the increase in absorbance at 410 nm (Δε=1.62×10^4M^-1 cm^-1) in a solution of 1×10^-3 M PNPP, 1M Tris HCl, 10 mM MgCl2, 5×10^-5 M ZnCl2, pH 8.0, 20° C. […] Trypsin, PNPP, and carboxypeptidase Y were obtained from Sigma. […] All other chemicals employed were reagent grade.
To prepare trypsin-modified alkaline phosphatase, native alkaline phosphatase (3 mg/ml) was treated with 10% (w/w) trypsin for 60 min at 20° C. and the major protein peak was isolated using the above chromatofocusing procedure.

[3] abbreviates: 10 mM MgCl2, 5×10^-5 M ZnCl2, pH 8.0, 20° C, PNPP 5×10^-6 to 1×10^-3 M.

The structures appear in SMILES notation.

T1 sequence (P00634 23-471): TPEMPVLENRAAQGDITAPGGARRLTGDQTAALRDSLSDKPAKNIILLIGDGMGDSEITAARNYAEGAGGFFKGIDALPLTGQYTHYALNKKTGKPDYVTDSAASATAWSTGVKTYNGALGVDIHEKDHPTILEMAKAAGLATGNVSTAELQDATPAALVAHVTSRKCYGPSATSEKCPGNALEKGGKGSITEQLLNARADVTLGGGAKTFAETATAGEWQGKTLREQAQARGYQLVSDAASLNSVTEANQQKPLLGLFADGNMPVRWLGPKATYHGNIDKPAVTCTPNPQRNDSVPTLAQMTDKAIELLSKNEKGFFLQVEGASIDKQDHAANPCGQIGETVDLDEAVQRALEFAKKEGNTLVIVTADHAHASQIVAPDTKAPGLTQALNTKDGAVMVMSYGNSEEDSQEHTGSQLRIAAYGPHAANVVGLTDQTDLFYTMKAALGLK

For the compound `O=[N+]([O-])c1ccc(OP(=O)(O)O)cc1` [PNPP, p-nitrophenolphosphate], the Km (in general, the concentration of substrate that gives half-maximal velocity) in assay [1] (setting [3]) turned out to be 40 µM; in assay [2] (setting [3]), 19 µM. The “Vmax (PNPP)” value was found to be 2500 µmol/h/mg in assay [1] (pH 8.0, 20° C) and 2000 µmol/h/mg in assay [2] (pH 8.0, 20° C).

The values above are taken from US4656128A, “Modified alkaline phosphatase” (Research Corporation, priority 1985, dated 1987).
